Experimental data from PubChem BioAssay (NCI).
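GI50 = concentration required for 50% inhibition of growth. TGI: total growth inhibition.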

Legend:
Experiment in all cases: DTP human tumour cell line panel, 384-well format
SK-OV-3 ovarian = system: SK-OV-3 ovarian
SF-539 CNS = system: SF-539 CNS
NCI/ADR-RES ovarian = system: NCI/ADR-RES ovarian
OVCAR-4 ovarian = system: OVCAR-4 ovarian
NCI-H522 lung = system: NCI-H522 lung
HCT-15 colon = system: HCT-15 colon
EKVX NSCLC = system: EKVX NSCLC
HOP-62 NSCLC = system: HOP-62 NSCLC
A498 renal = system: A498 renal
NCI-H226 lung = system: NCI-H226 lung
M14 melanoma = system: M14 melanoma
OVCAR-3 ovarian = system: OVCAR-3 ovarian
NCI-H23 lung = system: NCI-H23 lung
KM12 colon = system: KM12 colon
A549 NSCLC = system: A549 NSCLC
UACC-62 melanoma = system: UACC-62 melanoma
UO-31 renal = system: UO-31 renal
SK-MEL-2 melanoma = system: SK-MEL-2 melanoma
HL-60(TB) leukemia = system: HL-60(TB) leukemia
SF-268 CNS = system: SF-268 CNS
HS 578T breast = system: HS 578T breast
UACC-257 melanoma = system: UACC-257 melanoma
HT29 colon = system: HT29 colon
OVCAR-8 ovarian = system: OVCAR-8 ovarian
MDA-MB-435 melanoma = system: MDA-MB-435 melanoma
HCC-2998 colon = system: HCC-2998 colon
MOLT-4 leukemia = system: MOLT-4 leukemia
HCT-116 colon = system: HCT-116 colon
NCI-H322M lung = system: NCI-H322M lung
PC-3 prostate = system: PC-3 prostate
RXF 393 renal = system: RXF 393 renal
786-0 renal = system: 786-0 renal
NCI-H460 NSCLC = system: NCI-H460 NSCLC
MDA-MB-468 breast = system: MDA-MB-468 breast
RPMI-8226 leukemia = system: RPMI-8226 leukemia
K-562 leukemia = system: K-562 leukemia
SN12C renal = system: SN12C renal
MALME-3M melanoma = system: MALME-3M melanoma
T-47D breast = system: T-47D breast
SW-620 colon = system: SW-620 colon
MDA-MB-231 breast = system: MDA-MB-231 breast
CAKI-1 renal = system: CAKI-1 renal
SK-MEL-5 melanoma = system: SK-MEL-5 melanoma
BT-549 breast = system: BT-549 breast
CCRF-CEM leukemia = system: CCRF-CEM leukemia
OVCAR-5 ovarian = system: OVCAR-5 ovarian
U251 glioblastoma = system: U251 glioblastoma
ACHN renal = system: ACHN renal
IGROV1 ovarian = system: IGROV1 ovarian
SF-295 CNS = system: SF-295 CNS
SK-MEL-28 melanoma = system: SK-MEL-28 melanoma
COLO 205 colon = system: COLO 205 colon
LOX IMVI melanoma = system: LOX IMVI melanoma

CS(=O)(=O)Nc1cc(-c2ccc3ncnc(Nc4ccc(F)c(Cl)c4)c3c2)cnc1Cl
GI50 (SK-OV-3 ovarian): 635 nM | TGI (SK-OV-3 ovarian): 3320 nM | GI50 (SF-539 CNS): 1480 nM | TGI (SF-539 CNS): 5050 nM | GI50 (NCI/ADR-RES ovarian): 3600 nM | TGI (NCI/ADR-RES ovarian): 40300 nM | GI50 (OVCAR-4 ovarian): 1220 nM | TGI (OVCAR-4 ovarian): 4450 nM | GI50 (NCI-H522 lung): 547 nM | TGI (NCI-H522 lung): 2360 nM | GI50 (HCT-15 colon): 885 nM | TGI (HCT-15 colon): 3140 nM | GI50 (EKVX NSCLC): 498 nM | TGI (EKVX NSCLC): 2060 nM | GI50 (HOP-62 NSCLC): 1430 nM | TGI (HOP-62 NSCLC): 5190 nM | GI50 (A498 renal): 905 nM | TGI (A498 renal): 4060 nM | GI50 (NCI-H226 lung): 1440 nM | TGI (NCI-H226 lung): 13400 nM | GI50 (M14 melanoma): 1140 nM | TGI (M14 melanoma): 4000 nM | GI50 (OVCAR-3 ovarian): 457 nM | TGI (OVCAR-3 ovarian): 1850 nM | GI50 (NCI-H23 lung): 1150 nM | TGI (NCI-H23 lung): 4030 nM | GI50 (KM12 colon): 2860 nM | TGI (KM12 colon): 19900 nM | GI50 (A549 NSCLC): 1370 nM | TGI (A549 NSCLC): 2840 nM | GI50 (UACC-62 melanoma): 1040 nM | TGI (UACC-62 melanoma): 2550 nM | GI50 (UO-31 renal): 639 nM | TGI (UO-31 renal): 2420 nM | GI50 (SK-MEL-2 melanoma): 1200 nM | TGI (SK-MEL-2 melanoma): 2550 nM | GI50 (HL-60(TB) leukemia): 158 nM | TGI (HL-60(TB) leukemia): 1060 nM | GI50 (SF-268 CNS): 1420 nM | TGI (SF-268 CNS): 2900 nM | GI50 (HS 578T breast): 501 nM | TGI (HS 578T breast): 2310 nM | GI50 (UACC-257 melanoma): 1360 nM | TGI (UACC-257 melanoma): 5540 nM | GI50 (HT29 colon): 1110 nM | TGI (HT29 colon): 2520 nM | GI50 (OVCAR-8 ovarian): 1910 nM | TGI (OVCAR-8 ovarian): 10100 nM | GI50 (MDA-MB-435 melanoma): 1380 nM | TGI (MDA-MB-435 melanoma): 7870 nM | GI50 (HCC-2998 colon): 1180 nM | TGI (HCC-2998 colon): 2620 nM | GI50 (MOLT-4 leukemia): 160 nM | TGI (MOLT-4 leukemia): 348 nM | GI50 (HCT-116 colon): 1140 nM | TGI (HCT-116 colon): 2640 nM | GI50 (NCI-H322M lung): 1190 nM | TGI (NCI-H322M lung): 3360 nM | GI50 (PC-3 prostate): 872 nM | TGI (PC-3 prostate): 2280 nM | GI50 (RXF 393 renal): 450 nM | TGI (RXF 393 renal): 1960 nM | GI50 ([…]-0 renal): 1350 nM | TGI (786-0 renal): 4820 nM | GI50 (NCI-H460 NSCLC): 1010 nM | TGI (NCI-H460 NSCLC): 3840 nM | GI50 (MDA-MB-468 breast): 253 nM | TGI (MDA-MB-468 breast): 769 nM | GI50 (RPMI-8226 leukemia): 370 nM | TGI (RPMI-8226 leukemia): 1580 nM | GI50 (K-562 leukemia): 1520 nM | TGI (K-562 leukemia): 10600 nM | GI50 (SN12C renal): 524 nM | TGI (SN12C renal): 5250 nM | GI50 (MALME-3M melanoma): 293 nM | TGI (MALME-3M melanoma): 1640 nM | GI50 (T-47D breast): 85.5 nM | TGI (T-47D breast): 548 nM | GI50 (SW-620 colon): 1650 nM | TGI (SW-620 colon): 3840 nM | GI50 (MDA-MB-231 breast): 2330 nM | TGI (MDA-MB-231 breast): > 100000 nM | GI50 (CAKI-1 renal): 492 nM | TGI (CAKI-1 renal): 2020 nM | GI50 (SK-MEL-5 melanoma): 1030 nM | TGI (SK-MEL-5 melanoma): 2220 nM | GI50 (BT-549 breast): 573 nM | TGI (BT-549 breast): 2340 nM | GI50 (CCRF-CEM leukemia): 166 nM | TGI (CCRF-CEM leukemia): 466 nM | GI50 (OVCAR-5 ovarian): 939 nM | TGI (OVCAR-5 ovarian): 4550 nM | GI50 (U251 glioblastoma): 691 nM | TGI (U251 glioblastoma): 2110 nM | GI50 (ACHN renal): 1800 nM | TGI (ACHN renal): > 100000 nM | GI50 (IGROV1 ovarian): 154 nM | TGI (IGROV1 ovarian): 471 nM | GI50 (SF-295 CNS): 1290 nM | TGI (SF-295 CNS): 2930 nM | GI50 (SK-MEL-28 melanoma): 728 nM | TGI (SK-MEL-28 melanoma): 8860 nM | GI50 (COLO 205 colon): 1210 nM | TGI (COLO 205 colon): 2990 nM | GI50 (LOX IMVI melanoma): 1220 nM | TGI (LOX IMVI melanoma): 2560 nM
